Data: patent US12304912B2, “Fused bicyclic RAF inhibitors and methods for use thereof” (Jazz Pharmaceuticals Ireland Limited, priority 2020, dated 2025)
≈ marks a conversion by molar mass, not a printed value. Read-outs that look alike come from different tables or passages of the source.

Columns and labels:
[1] = Plasma protein binding assay, mouse plasma (mPPB); assay type: in vitro ADME; settings: 5 μM, equilibrium dialysis 4 hours at 37° C.
Procedure: (§1) Plasma Protein Binding Assay The plasma protein binding was determined by the equilibrium dialysis method. A known concentration of compound (5 μM) in previously frozen human or mouse plasma (Sera Labs) was dialysed against phosphate buffer using a RED device (Life Technologies) for 4 hours at 37° C. The concentration of compound in the protein containing (PC) and protein free (PF) sides of the dialysis membrane were determined by LC-MS/MS and the % free compound was determined by equation 4. Data analysis was performed using Excel (Microsoft, USA). % free=(1−((PC−PF)/PC))×100 (4) hPPB (human plasma protein binding) and mPPB (mouse plasma protein binding) results are described in Tables 1-2.

[2] = Plasma protein binding assay, human plasma (hPPB); assay type: in vitro ADME; settings: 5 μM, equilibrium dialysis 4 hours at 37° C.
Procedure: as §1

[3] = tested on: constitutive ERK phosphorylation in HCT-116 cells; test: HCT-116 AlphaLISA SureFire pERK1/2 cellular assay; assay type: cell-based, human; settings: Homo sapiens, read-out: pERK HCT116 (2 hr) Abs pIC50 (converted)
Procedure: HCT-116 AlphaLISA SureFire pERK1/2 Cellular Assay […] […] Assay read outs took place 2 or 24 hours after dosing with compounds. On the first day, HCT-116 cells were harvested, resuspended in growth medium (McCoys5A with Glutamax (Life Technologies 36600021) and 10% heat-inactivated fetal bovine serum (Sigma F9665)), and counted. Cells were plated in 100 μl per well in each well of a 96-well culture dish (Sigma CLS3598) to a final density of 30,000 (2 hr read) or 15,000 (24 hr read) cells per well and incubated over night at 37° C. and 5% CO2. On day 2, the growth medium was exchanged for dosing medium (McCoys5A with Glutamax (Life Technologies 36600021) and 1% heat-inactivated fetal bovine serum (Sigma F9665)) and the cells were dosed with compounds to produce a 10-point dose response, where the top concentration was 1 μM and subsequent concentrations were at 1/3 log dilution intervals. A matched DMSO control was included. The cells were subsequently incubated for either 2 or 24 hours at 37° C. and 5% CO2. After incubation, media was removed and the cells were incubated with lysis buffer containing phosphatase inhibitors for 15 minutes at room temperature. Cell lysates were transferred to a 12 area 96 well white Optiplate™ (Perkin Elmer 6005569) and incubated with anti-mouse IgG acceptor beads, a biotinylated anti-ERK1/2 rabbit antibody recognizing both phosphorylated and non-phosphorylated ERK1/2, a mouse antibody targeted to the Thr202/Tyr204 epitope and recognizing phosphorylated ERK proteins only, and streptavidin-coated donor beads. The biotinylated antibody binds to the streptavidin-coated donor beads and the phopsho-ERK1/2 antibody binds to the acceptor beads. […] Both antibodies bound to phosphorylated ERK proteins, bringing the donor and acceptor beads into close proximity. All data were analyzed using the Dotmatics or GraphPad Prism software packages. Inhibition of ERK phosphorylation was assessed by determination of the absolute IC50 value, which is defined as the concentration of compound required to decrease the level of phosphorylated ERK proteins by 50% when compared to DMSO control.

[4] = FeSSIF solubility assay; assay type: physicochemical; settings: fed state simulated intestinal fluid (FeSSIF), thermodynamic from solid, pH 5 acetate buffer, 37° C., read-out: FESSIF Sol
Procedure: FeSSIF Solubility Assay 1 mL of fed state simulated intestinal fluid (FeSSIF), prepared using FaSSIF/FeSSIF/FaSSGF powder (Biorelevant.com) and pH 5 acetate buffer, was added to 1.0 mg of compound and then incubated for 24 h (Bioshake iQ, 650 rpm, 37° C.). Following filtration under positive pressure, the concentration of compound in solution was assessed by LC-UV in comparison to the response for a calibration standard of known concentration (250 μM). FeSSIF solubility results are described in Tables 1-2.

[5] = Microsomal stability assay, human liver microsomes (HLM); assay type: in vitro ADME; settings: 0.5 mg/mL protein, 1 μM substrate, 37° C.
Procedure: (§2) Microsomal Stability Assay
(§3) The stability studies were performed manually using the substrate depletion approach. Test compounds were incubated at 37° C. with cryo-preserved mouse or human liver microsomes (Corning) at a protein concentration of 0.5 mg·mL^−1 and a final substrate concentration of 1 μM. Aliquots were removed from the incubation at defined timepoints and the reaction was terminated by adding to ice-cold organic solvent. Compound concentrations were determined by LC-MS/MS analysis. The natural log of the percentage of compound remaining was plotted against each time point and the slope determined. The half-life (t1/2) and CLint were calculated using Equations 1 and 2, respectively.
(§4) HLM (human liver microsomes) and MLM (mouse liver microsomes) stability assay results are described in Tables 1-2.

[6] = Microsomal stability assay, mouse liver microsomes (MLM); assay type: in vitro ADME; settings: 0.5 mg/mL protein, 1 μM substrate
Procedure: as §2, §3, §4

[7] = Solubility (Sol), medium not stated; assay type: physicochemical; settings: cells not marked (FESSIF)
[8] = HCT-116, HCT116 cells, 2 hr, Abs

| SMILES | mPPB (% free) [1] | hPPB (% free) [2] | IC50 [3, 8] | solubility thermodynamic at 24 h [4] | microsomal CLint at 1 μM [5] | microsomal CLint at 1 μM ([6]; 37° C.) | Sol [7] | microsomal CLint at 1 μM [6] | IC50 ([3]; HCT-116, 2 h) |
| --- | --- | --- | --- | --- | --- | --- | --- | --- | --- |
| CC(C)(C)c1cc(-c2c[nH]c(C3COc4ccc(Oc5ccnc6c5CCC(=O)N6)cc4C3)n2)ccn1 (stereo not drawn) [Compound 121, 5-[3-[4-(2-tert-butyl-4-pyridyl)-1H-imidazol-2-yl]chroman-6-yl]oxy-3,4-dihydro-1H-1,8-naphthyridin-2-one] | 0.4 % free | 0.4 % free | > 1000 nM | 38.2 µg/mL (≈ 77.1 µM) | 207 µL/min/mg | 137 µL/min/mg |  |  |  |
| O=C1CCc2c(Oc3ccc4c(c3)CC(c3cc(-c5ccc(Cl)cc5)n[nH]3)CO4)ccnc2N1 (stereo not drawn) [Compound 39] |  |  |  |  |  |  | <1.2 mg/L | 15.4 µL/min/mg |  |
| CC(C(=O)Nc1cc(Oc2ccc3c(c2)CC(c2nc(-c4ccccc4)c[nH]2)CO3)ccn1)N1CCOCC1 (stereo not drawn) [Compound 150, 2-morpholino-N-[4-[3-(4-phenyl-1H-imidazol-2-yl)chroman-6-yl]oxy-2-pyridyl]propanamide] |  |  |  | 235 µg/mL (≈ 448 µM) |  |  |  |  | > 1000 nM |
| CC(=O)N1CCc2nc(C3COc4ccc(Oc5ccnc6c5CCC(=O)N6)cc4C3)[nH]c2C1 (stereo not drawn) [Compound 135, 5-[3-(5-acetyl-3,4,6,7-tetrahydroimidazo[4,5-c]pyridin-2-yl)chroman-6-yl]oxy-3,4-dihydro-1H-1,8-naphthyridin-2-one] |  |  |  | 33.2 µg/mL (≈ 72.3 µM) |  |  |  |  | > 1000 nM |
| Cn1cnc2cc(-c3c[nH]c(C4COc5ccc(Oc6ccnc7c6CCC(=O)N7)cc5C4)n3)ccc21 (stereo not drawn) [Compound 129, 5-[3-[4-(1-methylbenzimidazol-5-yl)-1H-imidazol-2-yl]chroman-6-yl]oxy-3,4-dihydro-1H-1,8-naphthyridin-2-one] |  |  | > 1000 nM | 16.7 µg/mL (≈ 33.9 µM) |  |  |  |  |  |
| COc1ccc(-c2cc(C3COc4ccc(Oc5ccnc6c5CCC(=O)N6)cc4C3)[nH]n2)cc1 (stereo not drawn) [Compound 43] |  |  |  |  |  |  | <1.2 mg/L | 23.2 µL/min/mg |  |

The next lines start with results.

| mPPB (% free) [1] | hPPB (% free) [2] | IC50 [3, 8] | solubility thermodynamic at 24 h [4] | microsomal CLint at 1 μM [5] | microsomal CLint at 1 μM ([6]; 37° C.) | Sol [7] | microsomal CLint at 1 μM [6] | SMILES | IC50 ([3]; HCT-116, 2 h) |
| --- | --- | --- | --- | --- | --- | --- | --- | --- | --- |
| 0.9 % free | 0.6 % free | 724 nM | < 1.2 µg/mL | 74.2 µL/min/mg | 35.8 µL/min/mg |  |  | O=C1CCc2c(Oc3ccc4c(c3)CC(c3nc(-c5ccnc(C6CC6)c5)c[nH]3)CO4)ccnc2N1 (stereo not drawn) [Compound 119, 5-[3-[4-(2-cyclopropyl-4-pyridyl)-1H-imidazol-2-yl]chroman-6-yl]oxy-3,4-dihydro-1H-1,8-naphthyridin-2-one] |  |
| 0.5 % free | 1.0 % free | > 1000 nM | < 1 µg/mL | 19.8 µL/min/mg | 34.4 µL/min/mg |  |  | O=C1CCc2c(Oc3ccc4c(c3)CN(c3nc5ccccc5[nH]3)CC4)ccnc2N1 [Compound 159, 5-[[2-(1H-benzimidazol-2-yl)-3,4-dihydro-1H-isoquinolin-7-yl]oxy]-3,4-dihydro-1H-1,8-naphthyridin-2-one] |  |
| 0.6 % free | 0.9 % free | 955 nM | 1.3 µg/mL (≈ 2.7 µM) | 190 µL/min/mg | 89 µL/min/mg |  |  | CC(C)c1cc(-c2c[nH]c(C3COc4ccc(Oc5ccnc6c5CCC(=O)N6)cc4C3)n2)ccn1 (stereo not drawn) [Compound 120, 5-[3-[4-(2-isopropyl-4-pyridyl)-1H-imidazol-2-yl]chroman-6-yl]oxy-3,4-dihydro-1H-1,8-naphthyridin-2-one] |  |
|  |  | > 1000 nM | < 1.3 µg/mL |  |  |  |  | Cc1cc(-c2ccc3[nH]c(N4CCc5ccc(Oc6ccnc7c6CCC(=O)N7)cc5C4)nc3c2)n(C)n1 [Compound 163] |  |
|  |  | > 1000 nM | 13.7 µg/mL (≈ 28.1 µM) |  |  |  |  | O=C1CCc2c(Oc3ccc4c(c3)CN(c3nc5cc(-c6ccccc6)ccc5[nH]3)CC4)ccnc2N1 [Compound 162, 5-[[2-(5-phenyl-1H-benzimidazol-2-yl)-3,4-dihydro-1H-isoquinolin-7-yl]oxy]-3,4-dihydro-1H-1,8-naphthyridin-2-one] |  |
|  |  | > 1000 nM | 12.2 µg/mL (≈ 24.8 µM) |  |  |  |  | Cn1ncc2cc(-c3c[nH]c(C4COc5ccc(Oc6ccnc7c6CCC(=O)N7)cc5C4)n3)ccc21 (stereo not drawn) [Compound 131, 5-[3-[4-(1-methylindazol-5-yl)-1H-imidazol-2-yl]chroman-6-yl]oxy-3,4-dihydro-1H-1,8-naphthyridin-2-one] |  |
|  |  | > 1000 nM | < 1.1 µg/mL |  |  |  |  | Cc1nn(C)cc1-c1c[nH]c(C2COc3ccc(Oc4ccnc5c4CCC(=O)N5)cc3C2)n1 (stereo not drawn) [Compound 109, 5-[3-[4-(1,3-dimethylpyrazol-4-yl)-1H-imidazol-2-yl]chroman-6-yl]oxy-3,4-dihydro-1H-1,8-naphthyridin-2-one] |  |
